Earlier results, collected in patent US20140343147A1, “NUTRITIONAL SUPPLEMENT FOR THE ENHANCEMENT OF MUSCLE PERFORMANCE AND RECOVERY AND METHODS OF USE THEREOF” (Maximum Human Performance, LLC, priority 2011, published 2014).

Columns and labels:
humans = details: daily dose
rats = details: daily dose
mice = details: iv. in mice, Na-salt
[1] = colorless crystals; water and alcohol

SMILES: N[C@H](CC(=O)O)C(=O)O [D-aspartic acid]
- luteinizing hormone levels (humans): increase
- testosterone levels (humans): increase
- luteinizing hormone levels (rats): increase
- testosterone levels (rats): increase

SMILES: CC(C)CC(O)C(=O)O (stereo not drawn) [HICA, 2-hydroxy-4-methylvaleric acid]
- LD50 (mice): 650 mg/kg
- solubility [1]: soluble in water and alcohol
